# Experimental data reported in US6355799B1, “Substituted benzene compounds, process for their preparation, and herbicidal and defoliant compositions containing them” (ISK Americas Incorporated, priority 1997, dated 2002).
# Key:
# Test in all cases: Pre-emerge test, greenhouse herbicide activity screening
# Format in all cases: in vivo
# Conditions in all cases: pre-emerge, rated 14 days after application, 0 = no damage, 100 = complete death
# [1] = system: redroot pigweed (Amaranthus retroflexus, AMARE)
# Procedure, shortened: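 Compounds in acetone were track-sprayed at 15-1000 g ai/ha (187 l/ha) on sandy loam pots: pre-emerge one day after seeding, post-emerge at 2-3 leaf stage with 0.25% v/v non-ionic surfactant. Phytotoxicity was rated 14 days later on a 0 (no damage) to 100 (complete death) scale.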
# [2] = system: barnyardgrass (Echinochloa crus-galli, ECHCG)
# Procedure, shortened: (§1)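 Compounds in acetone were track-sprayed at 187 l/ha, 15–1000 g ai/ha, onto sandy loam pots. Pre-emerge seeds were sown one day before spraying, with surface watering afterwards. Post-emerge plants were at the 2–3 leaf stage and sprayed with 0.25% v/v non-ionic surfactant. Injury was rated 0–100 at 14 days.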
# [3] = system: green foxtail (Setaria viridis, SETVI)
# Procedure, shortened: as §1
# [4] = system: ivyleaf morningglory (Ipomoea hederacea, IPOHE)
# Procedure, shortened: as §1
# [5] = system: johnsongrass (Sorghum halepense, SORHA)
# Procedure, shortened: as §1
# [6] = system: lambsquarters (Chenopodium album, CHEAL)
# Procedure, shortened: as §1
# [7] = system: large crabgrass (Digitaria sanguinalis, DIGSA)
# Procedure, shortened: as §1
# [8] = system: sicklepod (Cassia obtusifolia, CASOB)
# Procedure, shortened: as §1
# [9] = system: velvetleaf (Abutilon theophrasti, ABUTH)
# Procedure, shortened: as §1
structure (smiles),measurement,setting,value
"O=c1cc(C(F)(F)F)[nH]c(=O)n1-c1c(F)cc(Cl)c(O)c1[N+](=O)[O-] [Compound 1-2, 3-(4-chloro-6-fluoro-3-hydroxy-2-nitrophenyl)-6-trifluoromethyl-2,4(1H, 3H)-pyrimidinedione]","Pre-emerge Herbicidal Activity AMARE (phytotoxicity rating, scale 0-100)",[1]; 63 g ai/ha,0
same,"Pre-emerge Herbicidal Activity AMARE (phytotoxicity rating, scale 0-100)",[1]; 250 g ai/ha,0
same,"Pre-emerge Herbicidal Activity ECHCG (phytotoxicity rating, scale 0-100)",[2]; 63 g ai/ha,0
same,"Pre-emerge Herbicidal Activity ECHCG (phytotoxicity rating, scale 0-100)",[2]; 250 g ai/ha,0
same,"Pre-emerge Herbicidal Activity SETVI (phytotoxicity rating, scale 0-100)",[3]; 63 g ai/ha,20
same,"Pre-emerge Herbicidal Activity SETVI (phytotoxicity rating, scale 0-100)",[3]; 250 g ai/ha,0
same,"Pre-emerge Herbicidal Activity IPOHE (phytotoxicity rating, scale 0-100)",[4]; 63 g ai/ha,0
same,"Pre-emerge Herbicidal Activity IPOHE (phytotoxicity rating, scale 0-100)",[4]; 250 g ai/ha,0
same,"Pre-emerge Herbicidal Activity SORHA (phytotoxicity rating, scale 0-100)",[5]; 63 g ai/ha,0
same,"Pre-emerge Herbicidal Activity SORHA (phytotoxicity rating, scale 0-100)",[5]; 250 g ai/ha,0
same,"Pre-emerge Herbicidal Activity CHEAL (phytotoxicity rating, scale 0-100)",[6]; 63 g ai/ha,0
same,"Pre-emerge Herbicidal Activity CHEAL (phytotoxicity rating, scale 0-100)",[6]; 250 g ai/ha,0
same,"Pre-emerge Herbicidal Activity DIGSA (phytotoxicity rating, scale 0-100)",[7]; 63 g ai/ha,0
same,"Pre-emerge Herbicidal Activity DIGSA (phytotoxicity rating, scale 0-100)",[7]; 250 g ai/ha,30
same,"Pre-emerge Herbicidal Activity CASOB (phytotoxicity rating, scale 0-100)",[8]; 63 g ai/ha,90
same,"Pre-emerge Herbicidal Activity CASOB (phytotoxicity rating, scale 0-100)",[8]; 250 g ai/ha,100
same,"Pre-emerge Herbicidal Activity ABUTH (phytotoxicity rating, scale 0-100)",[9]; 63 g ai/ha,50
same,"Pre-emerge Herbicidal Activity ABUTH (phytotoxicity rating, scale 0-100)",[9]; 250 g ai/ha,10
